Source: the supplement of paper PMC10307832

Tests used:
Test in all cases: relative viability (nuclei count vs DMSO), 5 days (fraction); higher = more cells survive
[1] = system: 201T
How it was run: (§1)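 For relative viability, nuclei counts in treated wells were divided by those in vehicle wells. Lung cancer cell lines had been pin-tool dosed in 1536-well plates the day after seeding and cultured for 5 days, then fixed and stained in one step (final 0.05% Triton X-100, 1% formaldehyde, 1 ug/ml Hoechst) and imaged at 4×. Doses were one drug alone or a fixed anchor-drug dose plus five library-drug doses (not always all listed) in √10 steps, and values are duplicate-plate medians.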

[2] = system: A-427
How it was run: as §1

[3] = system: ABC-1
How it was run: as §1

[4] = system: BEN
How it was run: as §1

[5] = system: CAL-12T
How it was run: as §1

[6] = system: H3255
How it was run: as §1

[7] = system: LC-2-ad
How it was run: as §1

[8] = system: LCLC-97TM1
How it was run: as §1

[9] = system: NCI-H1650
How it was run: as §1

[10] = system: NCI-H1651
How it was run: as §1

[11] = system: NCI-H1915
How it was run: as §1

[12] = system: NCI-H1944
How it was run: as §1

[13] = system: NCI-H2023
How it was run: as §1

[14] = system: NCI-H2087
How it was run: as §1

[15] = system: NCI-H441
How it was run: as §1

[16] = system: NCI-H460
How it was run: as §1

[17] = system: NCI-H520
How it was run: as §1

[18] = system: NCI-H596
How it was run: as §1

[19] = system: NCI-H650
How it was run: as §1

[20] = system: NCI-H661
How it was run: as §1

[21] = system: NCI-H727
How it was run: as §1

[22] = system: PC-3 [JPC-3]
How it was run: as §1

Q: O=c1cc(-c2cccc3c2Sc2ccccc2S3)oc(N2CCOCC2)c1 + CCNC(=O)c1noc(-c2cc(C(C)C)c(O)cc2O)c1-c1ccc(CN2CCOCC2)cc1 [Luminespib] (partner 0.01 µM) was tested. Which relative viability ([1]; first compound 0.08 µM) did it give?
A: The relative viability was 1.02.

Q: What about the relative viability ([1]; first compound 0.253 µM) of the same compound?
A: Its relative viability is 1.05.

Q: What about the relative viability ([1]; first compound 0.8 µM) of the same compound?
A: Its relative viability is 1.16.

Q: And the relative viability ([1]; first compound 2.53 µM)?
A: The relative viability was 0.99.

Q: And the relative viability ([1]; first compound 8 µM)?
A: The relative viability was 0.969.

Q: And the relative viability ([2]; first compound 0.08 µM)?
A: The relative viability was 0.92.

Q: And the relative viability ([2]; first compound 0.253 µM)?
A: Its relative viability is 1.18.

Q: And the relative viability ([2]; first compound 0.8 µM)?
A: The relative viability was 1.01.

Q: What about the relative viability ([2]; first compound 2.53 µM) of the same compound?
A: The relative viability was 0.842.

Q: What about the relative viability ([2]; first compound 8 µM) of the same compound?
A: The relative viability was 1.09.

Q: What about the relative viability ([3]; first compound 0.08 µM) of the same compound?
A: The relative viability was 0.535.

Q: And the relative viability ([3]; first compound 0.253 µM)?
A: The relative viability was 0.275.

Q: What about the relative viability ([3]; first compound 0.8 µM) of the same compound?
A: The relative viability was 0.91.

Q: What about the relative viability ([3]; first compound 2.53 µM) of the same compound?
A: Its relative viability is 0.529.

Q: And the relative viability ([3]; first compound 8 µM)?
A: The relative viability was 0.532.

Q: What about the relative viability ([4]; first compound 0.08 µM) of the same compound?
A: Its relative viability is 0.223.

Q: What about the relative viability ([4]; first compound 0.253 µM) of the same compound?
A: The relative viability was 0.435.

Q: What about the relative viability ([4]; first compound 0.8 µM) of the same compound?
A: Its relative viability is 0.294.

Q: What about the relative viability ([4]; first compound 2.53 µM) of the same compound?
A: The relative viability was 0.271.

Q: What about the relative viability ([4]; first compound 8 µM) of the same compound?
A: Its relative viability is 0.387.

Q: What about the relative viability ([5]; first compound 0.08 µM) of the same compound?
A: The relative viability was 0.277.

Q: What about the relative viability ([5]; first compound 0.253 µM) of the same compound?
A: Its relative viability is 0.708.

Q: What about the relative viability ([5]; first compound 0.8 µM) of the same compound?
A: The relative viability was 0.506.

Q: What about the relative viability ([5]; first compound 2.53 µM) of the same compound?
A: Its relative viability is 0.299.

Q: What about the relative viability ([5]; first compound 8 µM) of the same compound?
A: The relative viability was 0.207.

Q: And the relative viability ([6]; first compound 0.08 µM)?
A: The relative viability was 0.758.

Q: What about the relative viability ([6]; first compound 0.253 µM) of the same compound?
A: Its relative viability is 0.943.

Q: And the relative viability ([6]; first compound 0.8 µM)?
A: Its relative viability is 0.84.

Q: What about the relative viability ([6]; first compound 2.53 µM) of the same compound?
A: The relative viability was 0.884.

Q: What about the relative viability ([6]; first compound 8 µM) of the same compound?
A: Its relative viability is 0.955.

Q: And the relative viability ([7]; first compound 0.08 µM)?
A: Its relative viability is 0.979.

Q: What about the relative viability ([7]; first compound 0.253 µM) of the same compound?
A: Its relative viability is 1.12.

Q: And the relative viability ([7]; first compound 0.8 µM)?
A: Its relative viability is 1.13.

Q: And the relative viability ([7]; first compound 2.53 µM)?
A: The relative viability was 0.955.

Q: What about the relative viability ([7]; first compound 8 µM) of the same compound?
A: Its relative viability is 0.965.

Q: What about the relative viability ([8]; first compound 0.08 µM) of the same compound?
A: Its relative viability is 0.815.

Q: And the relative viability ([8]; first compound 0.253 µM)?
A: Its relative viability is 0.733.

Q: And the relative viability ([8]; first compound 0.8 µM)?
A: The relative viability was 0.807.

Q: What about the relative viability ([8]; first compound 2.53 µM) of the same compound?
A: Its relative viability is 0.71.

Q: What about the relative viability ([8]; first compound 8 µM) of the same compound?
A: The relative viability was 0.708.

Q: And the relative viability ([9]; first compound 0.08 µM)?
A: The relative viability was 0.189.

Q: And the relative viability ([9]; first compound 0.253 µM)?
A: The relative viability was 0.199.

Q: And the relative viability ([9]; first compound 0.8 µM)?
A: The relative viability was 0.199.

Q: And the relative viability ([9]; first compound 2.53 µM)?
A: Its relative viability is 0.186.

Q: What about the relative viability ([9]; first compound 8 µM) of the same compound?
A: Its relative viability is 0.209.

Q: What about the relative viability ([10]; first compound 0.08 µM) of the same compound?
A: The relative viability was 0.81.

Q: And the relative viability ([10]; first compound 0.253 µM)?
A: The relative viability was 0.93.

Q: And the relative viability ([10]; first compound 0.8 µM)?
A: Its relative viability is 0.889.

Q: What about the relative viability ([10]; first compound 2.53 µM) of the same compound?
A: Its relative viability is 0.807.

Q: And the relative viability ([10]; first compound 8 µM)?
A: The relative viability was 0.791.

Q: And the relative viability ([11]; first compound 0.08 µM)?
A: Its relative viability is 0.968.

Q: And the relative viability ([11]; first compound 0.253 µM)?
A: The relative viability was 0.827.

Q: What about the relative viability ([11]; first compound 0.8 µM) of the same compound?
A: The relative viability was 0.911.

Q: What about the relative viability ([11]; first compound 2.53 µM) of the same compound?
A: The relative viability was 0.775.

Q: And the relative viability ([11]; first compound 8 µM)?
A: Its relative viability is 0.769.

Q: And the relative viability ([12]; first compound 0.08 µM)?
A: The relative viability was 0.678.

Q: And the relative viability ([12]; first compound 0.253 µM)?
A: The relative viability was 0.746.

Q: And the relative viability ([12]; first compound 0.8 µM)?
A: The relative viability was 0.72.

Q: What about the relative viability ([12]; first compound 2.53 µM) of the same compound?
A: Its relative viability is 0.684.

Q: What about the relative viability ([12]; first compound 8 µM) of the same compound?
A: The relative viability was 0.758.

Q: And the relative viability ([13]; first compound 0.08 µM)?
A: The relative viability was 0.58.

Q: What about the relative viability ([13]; first compound 0.253 µM) of the same compound?
A: The relative viability was 0.949.

Q: And the relative viability ([13]; first compound 0.8 µM)?
A: The relative viability was 0.601.

Q: And the relative viability ([13]; first compound 2.53 µM)?
A: Its relative viability is 0.856.

Q: What about the relative viability ([13]; first compound 8 µM) of the same compound?
A: Its relative viability is 0.499.

Q: What about the relative viability ([14]; first compound 0.08 µM) of the same compound?
A: The relative viability was 0.2.

Q: What about the relative viability ([14]; first compound 0.253 µM) of the same compound?
A: The relative viability was 0.163.

Q: And the relative viability ([14]; first compound 0.8 µM)?
A: The relative viability was 0.155.

Q: What about the relative viability ([14]; first compound 2.53 µM) of the same compound?
A: Its relative viability is 0.163.

Q: What about the relative viability ([14]; first compound 8 µM) of the same compound?
A: Its relative viability is 0.2.

Q: What about the relative viability ([15]; first compound 0.08 µM) of the same compound?
A: The relative viability was 0.331.

Q: What about the relative viability ([15]; first compound 0.253 µM) of the same compound?
A: The relative viability was 0.314.

Q: And the relative viability ([15]; first compound 0.8 µM)?
A: Its relative viability is 0.35.

Q: And the relative viability ([15]; first compound 2.53 µM)?
A: The relative viability was 0.407.

Q: What about the relative viability ([15]; first compound 8 µM) of the same compound?
A: Its relative viability is 0.281.

Q: What about the relative viability ([16]; first compound 0.08 µM) of the same compound?
A: Its relative viability is 0.0288.

Q: And the relative viability ([16]; first compound 0.253 µM)?
A: The relative viability was 0.0357.

Q: What about the relative viability ([16]; first compound 0.8 µM) of the same compound?
A: The relative viability was 0.0367.

Q: What about the relative viability ([16]; first compound 2.53 µM) of the same compound?
A: Its relative viability is 0.0306.

Q: What about the relative viability ([16]; first compound 8 µM) of the same compound?
A: Its relative viability is 0.0332.

Q: And the relative viability ([17]; first compound 0.08 µM)?
A: Its relative viability is 0.223.

Q: And the relative viability ([17]; first compound 0.253 µM)?
A: The relative viability was 0.231.

Q: And the relative viability ([17]; first compound 0.8 µM)?
A: The relative viability was 0.215.

Q: What about the relative viability ([17]; first compound 2.53 µM) of the same compound?
A: The relative viability was 0.205.

Q: And the relative viability ([17]; first compound 8 µM)?
A: Its relative viability is 0.231.

Q: And the relative viability ([18]; first compound 0.08 µM)?
A: The relative viability was 1.06.

Q: What about the relative viability ([18]; first compound 0.253 µM) of the same compound?
A: Its relative viability is 0.957.

Q: What about the relative viability ([18]; first compound 0.8 µM) of the same compound?
A: The relative viability was 0.763.

Q: What about the relative viability ([18]; first compound 2.53 µM) of the same compound?
A: The relative viability was 0.891.

Q: And the relative viability ([18]; first compound 8 µM)?
A: The relative viability was 0.852.

Q: What about the relative viability ([19]; first compound 0.08 µM) of the same compound?
A: Its relative viability is 0.711.

Q: And the relative viability ([19]; first compound 0.253 µM)?
A: Its relative viability is 0.756.

Q: And the relative viability ([19]; first compound 0.8 µM)?
A: The relative viability was 0.873.

Q: What about the relative viability ([19]; first compound 8 µM) of the same compound?
A: The relative viability was 0.813.

Q: And the relative viability ([20]; first compound 0.08 µM)?
A: The relative viability was 0.914.

Q: What about the relative viability ([20]; first compound 0.253 µM) of the same compound?
A: Its relative viability is 0.939.

Q: And the relative viability ([20]; first compound 0.8 µM)?
A: The relative viability was 0.893.

Q: What about the relative viability ([20]; first compound 2.53 µM) of the same compound?
A: Its relative viability is 0.897.

Q: What about the relative viability ([20]; first compound 8 µM) of the same compound?
A: The relative viability was 0.891.

Q: And the relative viability ([21]; first compound 0.08 µM)?
A: The relative viability was 0.289.

Q: And the relative viability ([21]; first compound 0.253 µM)?
A: Its relative viability is 0.449.

Q: What about the relative viability ([21]; first compound 0.8 µM) of the same compound?
A: The relative viability was 0.307.

Q: And the relative viability ([21]; first compound 2.53 µM)?
A: Its relative viability is 0.536.

Q: What about the relative viability ([21]; first compound 8 µM) of the same compound?
A: The relative viability was 0.382.

Q: And the relative viability ([22]; first compound 0.08 µM)?
A: The relative viability was 0.685.

Q: What about the relative viability ([22]; first compound 0.253 µM) of the same compound?
A: Its relative viability is 0.765.

Q: And the relative viability ([22]; first compound 0.8 µM)?
A: The relative viability was 0.862.

Q: What about the relative viability ([22]; first compound 2.53 µM) of the same compound?
A: Its relative viability is 0.687.

Q: And the relative viability ([22]; first compound 8 µM)?
A: Its relative viability is 0.493.
